Where “and” joins values, the source holds several entries; their conditions need not be identical. Identical values can stand only once. Like-named read-outs stand apart in the source and are kept apart here.

Experiment [1] concerns the target T1, LecBPAO1 (Pseudomonas aeruginosa, UniProt Q9HYN5). The conditions noted are these: cited from earlier work; for N (LecBPAO1): ITC stoichiometry.
The target of experiment [2] is T2, LecBPA14 (Pseudomonas aeruginosa, UniProt A0A0H2ZE85). Put plainly: biochemical. It is filed as binding, P. aeruginosa PA14.
The target of experiment [3] is T2, LecBPA14. Put plainly: biochemical. It is filed as binding, P. aeruginosa PA14. The protocol:
(§1) To quantify the binding affinities of the carbohydrates we adapted the competitive binding assay for LecBPA14 (Fig. S5 ^†) previously described for LecBPAO1.[18]
(§2) The competitive binding assay based on fluorescence polarization was performed as described previously for PAO1.[18] […] After addition of the reagents, the plate was incubated for 8–22 h at r.t. in a humidity chamber. […] The measured intensities were reduced by buffer values and fluorescence polarization was calculated. The data were analyzed using BMG Labtech MARS software and/or with Graphpad Prism and fitted according to the four parameter variable slope model. […] A minimum of three independent measurements of triplicates each was performed for every ligand.
The source holds these as a separate data set.

Experiment [4] concerns the target T1, LecBPAO1. Put plainly: biochemical. It is filed as binding, P. aeruginosa PAO1. As for the experimental part:
as §1, §2

In experiment [5] the target is T1, LecBPAO1. Briefly: biochemical. It counts as binding, P. aeruginosa PAO1. This is another data set of the same source.
Experiment [6] deals with LecB from P. aeruginosa PA14 (Pseudomonas aeruginosa UCBPP-PA14). Briefly: dynamic light scattering; 100 μM LecB in TBS/Ca (20 mM Tris, 137 mM NaCl, 2.6 mM KCl, pH 7.4, 1 mM CaCl2), 25 °C, Zetasizer Nano-ZS.
Experiment [7] has the same target. Briefly: crystal structure; native LecB_(PA14), hanging drop vapor diffusion at 19 °C, molecular replacement with the tetramer of PDB 1UZV, 1.70 Å.
Setting [8] is: individual ITC titrations, Fig. S6, TBS supplemented with 1 mM CaCl2.
The mark [9] stands for this setting: individual ITC titrations, Fig. S6, TBS supplemented with 1 mM CaCl2, protein and ligand concentrations vary.
The mark [10] stands for this setting: LecBPAO1 IC50, competitive binding assay, Fig. 3.
Setting [11] is: IC50 for LecBPAO1, competitive binding assay.

For the molecule `CO[C@@H]1O[C@@H](C)[C@@H](O)[C@@H](O)[C@@H]1O` [Compound 2, methyl α-L-fucoside], in experiment [1] (ITC), the “-TΔS (LecBPAO1)” value is 1.17 kcal/mol and the “ΔH (LecBPAO1)” value was -9.87 kcal/mol. Further, in experiment [2] (ITC stoichiometry, 25 °C), the “N (LecBPA14)” value is 0.99 ± 0.04. Further, in experiment [2] (ITC, 25 °C), the “-TΔS (LecBPA14)” value is -1.5 ± 0.201 kcal/mol and the “ΔH (LecBPA14)” value is -7.65 ± 0.227 kcal/mol. Also, in experiment [2] (setting [8]), the G is -9,15E+03 cal/mol and -9,22E+03 cal/mol and -9,24E+03 cal/mol and -8,96E+03 cal/mol; the H is -7.957 kcal/mol and -7.593 kcal/mol and -7.612 kcal/mol and -7.414 kcal/mol; the s was 5,45 cal/molK and 5,47 cal/molK and 5,18 cal/molK and 4,01 cal/molK. Besides, the Ka in experiment [2] (setting [9]) is given as 3,69E+06 1/M.

Regarding `CO[C@H]1O[C@H](CO)[C@@H](O)[C@H](O)[C@@H]1O` [Compound 5, methyl α-D-mannoside], the “N (LecBPAO1)” value in experiment [1] is 0.94. In addition, in experiment [1] (ITC), the “-TΔS (LecBPAO1)” value is -1.41 kcal/mol and the “ΔH (LecBPAO1)” value was -4.25 kcal/mol. In experiment [2], the “-TΔS (LecBPA14)” value was -3.47 ± 0.0789 kcal/mol; the G was -6,63E+03 cal/mol and -6,52E+03 cal/mol and -6,48E+03 cal/mol; the Ka is 7,18E+04 1/M and 6,20E+04 1/M and 5,54E+04 1/M; the “N (LecBPA14)” value is 1.03 ± 0.07. In experiment [2], the s is 11,8 cal/molK and 11,3 cal/molK and 11,7 cal/molK; the “ΔH (LecBPA14)” value is -3.08 ± 0.0813 kcal/mol.

As to `CO[C@@H]1OC[C@@H](O)[C@@H](O)[C@@H]1O` [Compound 6, methyl β-D-arabinoside], the IC50 (as a rule, the concentration that inhibits the measured activity by half) in experiment [3] worked out at 1900 ± 400 nM.

In experiment [3], `OC1[C@H](O)COC[C@H]1O` [Compound 7, 1-deoxy D-arabinose] gave an IC50 of 6800 ± 1200 nM.

`C[C@@H]1OC[C@@H](O)[C@H](O)[C@@H]1O` [Compound 8, 1-deoxy L-fucose] displayed an IC50 in experiment [3] of 610 ± 100 nM.

In experiment [3], `OC[C@H]1OC[C@@H](O)[C@@H](O)[C@@H]1O` [Compound 9, 1-deoxy D-mannose] registered an IC50 of 56000 ± 16000 nM.

As for `OCC1OC(OC2C(O)OC(CO)C(O)C2O)C(O)C(O)C1O` [Compound 10, α-1,2-D-mannosyl D-mannose], the values for the IC50 in experiment [3] and in experiment [4] (setting [10]) were 26000 ± 5000 nM and 85000 ± 2000 nM, respectively.

On to `OCC1OC(OC2C(O)C(O)OC(CO)C2O)C(O)C(O)C1O` [Compound 11, α-1,3-D-mannosyl D-mannose], for which the IC50 is 26000 ± 6000 nM in experiment [3] and 63000 ± 3000 nM in experiment [4] (setting [10]).

In turn, `CC(=O)NC1C(OC2C(O)C(O)OC(CO)C2O)OC(CO)C(OC2OC(C)C(O)C(O)C2O)C1OC1OC(CO)C(O)C(O)C1O` (stereo not shown) [Compound 12, Lewis^a] returned an IC50 in experiment [3] of 78 nM. The “N (LecBPAO1)” value in experiment [1] is on record as 1.08. In experiment [1] (ITC), the “-TΔS (LecBPAO1)” value is -0.741 kcal/mol, the “ΔG (LecBPAO1)” value was -9.11 kcal/mol and the “ΔH (LecBPAO1)” value was -8.34 kcal/mol. The Kd (commonly the free concentration of one partner at which half of the binding sites on the other are occupied at equilibrium, for simple one-to-one binding) in experiment [1] (read-out: Kd (LecBPAO1), ITC) is 212 nM. In addition, the “N (LecBPA14)” value in experiment [2] (ITC stoichiometry, 25 °C) came out at 1.05 ± 0.11. Besides, in experiment [2] (ITC, 25 °C), the “-TΔS (LecBPA14)” value was -0.813 ± 0.509 kcal/mol, the “ΔG (LecBPA14)” value was -9.78 ± 0.196 kcal/mol and the “ΔH (LecBPA14)” value was -8.99 ± 0.602 kcal/mol. Besides, the Kd in experiment [2] (Kd (LecBPA14), ITC, 25 °C) was 70 nM. Also, the Kd in experiment [2] (Kd, individual ITC titrations, Fig. S6, TBS supplemented with 1 mM CaCl2) is 62.1 nM and 96.2 nM and 50.3 nM. Further, in experiment [2] (setting [8]), the G is -9,83E+03 cal/mol and -9,57E+03 cal/mol and -9,96E+03 cal/mol; the H was -8.521 kcal/mol and -8.769 kcal/mol and -9.667 kcal/mol; the s was 4,39 cal/molK and 2,69 cal/molK and 0,969 cal/molK. In addition, the Ka in experiment [2] (setting [9]) was 1,61E+07 1/M and 1,04E+07 1/M and 1,99E+07 1/M. The same molecule displayed an IC50 in experiment [4] (setting [11]) of 166 nM. The concentration for half-maximal inhibition (IC50) in experiment [4] (setting [10]) stood at 170 ± 10 nM.

On to `CC(=O)NC1C(OC2C(O)C(O)OC(CO)C2O)OC(CO)C(O)C1OC1OC(CO)C(O)C(O)C1OC1OC(C)C(O)C(O)C1O` (stereo not shown) [Compound 14, H type I], for which the 50% inhibitory concentration (IC50) in experiment [3] was 910 ± 100 nM; in experiment [4] (setting [10]) it was 2300 ± 100 nM.

In experiment [5], `CC(=O)NC1C(OC2C(O)C(O)OC(CO)C2O)OC(CO)C(OC2OC(CO)C(O)C(O)C2OC2OC(C)C(O)C(O)C2O)C1O` (stereo not shown) [Compound 15, H type II] yielded a Kd of 605 ± 140 nM. Moreover, in experiment [5] (ITC stoichiometry, 25 °C), the “N (LecBPAO1)” value is 1.01 ± 0.07. In experiment [5] (ITC, 25 °C), the “-TΔS (LecBPAO1)” value was -0.837 ± 0.096 kcal/mol, the “ΔG (LecBPAO1)” value was -8.48 ± 0.12 kcal/mol and the “ΔH (LecBPAO1)” value is -7.67 ± 0.096 kcal/mol. In experiment [3], this molecule had an IC50 of 180 nM. Besides, in experiment [2] (ITC stoichiometry, 25 °C), the “N (LecBPA14)” value was found to be 0.98 ± 0.03. In experiment [2] (ITC, 25 °C), the “-TΔS (LecBPA14)” value was -2.75 ± 0.263 kcal/mol, the “ΔG (LecBPA14)” value was -9.18 ± 0.22 kcal/mol and the “ΔH (LecBPA14)” value is -6.43 ± 0.454 kcal/mol. The molecule further came in with a Kd in experiment [2] (Kd (LecBPA14), ITC, 25 °C) of 199 nM. In experiment [4] (setting [11]), this molecule had an IC50 of 930 nM.

For `CC(=O)NC1C(OC2C(O)C(O)OC(CO)C2O)OC(CO)C(OC2OC(C)C(O)C(O)C2O)C1OC1OC(CO)C(O)C(O)C1OC1OC(C)C(O)C(O)C1O` (stereo not shown) [Compound 16, Lewis^b], the IC50 stood at 150 ± 10 nM in experiment [3] and 690 ± 40 nM in experiment [4] (setting [10]).

As for `CC(=O)N[C@H]1[C@H](O[C@H]2[C@H](O)[C@@H](NC(C)=O)C(O)O[C@@H]2CO)O[C@H](CO)[C@@H](O[C@@H]2O[C@H](CO[C@H]3O[C@H](CO)[C@@H](O)[C@H](O)[C@@H]3O[C@@H]3O[C@H](CO)[C@@H](O[C@@H]4O[C@H](CO)[C@H](O)[C@H](O[C@@H]5O[C@H](CO)[C@@H](O[C@@H]6O[C@H](CO)[C@H](O)[C@H](O)[C@H]6O[C@@H]6O[C@@H](C)[C@@H](O)[C@@H](O)[C@@H]6O)[C@H](O)[C@H]5NC(C)=O)[C@H]4O)[C@H](O)[C@H]3NC(C)=O)[C@@H](O)[C@H](O[C@H]3O[C@H](CO)[C@@H](O)[C@H](O)[C@@H]3O[C@@H]3O[C@H](CO)[C@@H](O[C@@H]4O[C@H](CO)[C@H](O)[C@H](O[C@@H]5O[C@H](CO)[C@@H](O[C@@H]6O[C@H](CO)[C@H](O)[C@H](O)[C@H]6O[C@@H]6O[C@@H](C)[C@@H](O)[C@@H](O)[C@@H]6O)[C@H](O)[C@H]5NC(C)=O)[C@H]4O)[C@H](O)[C@H]3NC(C)=O)[C@@H]2O)[C@@H]1O` (stereo partly shown) [Compound 23], the results for the IC50 in experiment [3] and in experiment [4] (setting [11]) were 35 nM and 114 nM, respectively.

As for “LecB from P. aeruginosa PA14 (natural protein)”, the stoichiometry N in experiment [6] and in experiment [7] was 4 in each case.

These data come from publication PMC6018602, “The virulence factor LecB varies in clinical isolates: consequences for ligand binding and drug discovery” (Chemical Science, 2016).
